Assay results as given in patent US5447911A, “Ghilanten antimetastatic principle from the south american leech, Haementeria ghilianii” (Merrell Dow Pharmaceuticals Inc., priority 1994, dated 1995).

Tested on: B16 melanoma F10 cells
Experiment: Metastatic spread of B16-F10 melanoma cells to the lungs of C57/BL mice
Format: in vivo
Procedure: To confirm the anti-metastatic activity of the proteinaceous substances of this invention, 1×10^5 viable B16 melanoma F10 line cells were injected i.v. through the tail vein of C57/BL mice. The antimetastatic factor was then administered i.v. at -2, +2, +4 and +6 hours relative to the tumor innoculum at t=0 hours. At the end of 15 days, the animals were sacrificed and the number of metastatic foci in the lungs were quantitated. The results observed are summarized in Table 1 below, with n indicating the number of animals used in the test.
B16 melanoma F10 cells (1 × 10^5 cells/animal) were injected i.v.
into the tail vein of C57/Bl mice on day 0. Vehicle: 10 mM Hepes, 0.15M
NaCl, pH 7.4 containing 10 mg/ml BSA; recombinantHirudin (25 antithrombin
units) and FXa inhibitor (1-2 μg) were injected into the mice i.v. at
-2, +2, +4, +6 hrs. after tumor cell innoculation. The animals were
sacrificed at 14 days post tumor cell innoculation. The lungs were
dissected, fixed, and the number of pulmonary metas tases were determined
under a dissecting microscope. […]

[1] = Table 1, recombinant hirudin 25 antithrombin units or FXa inhibitor 1-2 μg i.v. at -2, +2, +4, +6 hrs, versus vehicle control

For Hirudin, the “No. of Metastatic Foci (Mean + S.E.; n = 6)” value (Table 1, lungs, recombinant hirudin 25 antithrombin units or FXa inhibitor 1-2 μg i.v. at -2, +2, +4, +6 hrs, 14 days post innoculation) was 198 ± 10, the “% Inhibition (metastatic foci)” value [1] was 0% and the “% Potentiation (metastatic foci)” value [1] was 21%. The “Effect on metastasis (in words)” value (administered -2, +2, +4 and +6 hours relative to tumor cell innoculation) was “caused a moderate increase in metastatic foci”.
